Assays:
Format in all cases: in vivo
Chilo suppressalis = test: Example B1: activity against Chilo suppressalis (striped rice stemborer), artificial diet; conditions: 144 h, 200 ppm, L2 larvae, 6 days after infestation, read-out: control (at least one of mortality, anti-feedant effect, growth inhibition)
Outline: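 Diet-incorporation surface assay: aqueous dilutions of 10'000 ppm DMSO stock applied to artificial diet, dried; 6-8 L2 larvae/well; read day 6 post-infestation for mortality, antifeedant effect, growth inhibition vs untreated. Active if any category above untreated.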

Diabrotica balteata = test: Example B2: activity against Diabrotica balteata (corn root worm), maize sprouts; conditions: 96 h, L2 larvae, 4 days after infestation, read-out: effect in at least one of the two categories (mortality or growth inhibition)
Outline: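 Maize sprouts on agar were sprayed with aqueous test solutions made from 10′000 ppm DMSO stocks, dried, then infested with 6–10 L2 larvae per well. Mortality and growth inhibition were scored against untreated samples 4 days after infestation, at an application rate of 200 ppm.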

Euschistus heros = test: Example B3: activity against Euschistus heros (neotropical brown stink bug), soybean leaves; conditions: 120 h, N2 nymphs, 5 days after infestation, read-out: effect in at least one of the two categories (mortality or growth inhibition)
Description: Soybean leaves on agar in 24-well microtiter plates were sprayed with aqueous test solutions prepared from 10′000 ppm DMSO stock solutions. After drying the leaves were infested with N2 nymphs. The samples were assessed for mortality and growth inhibition in comparison to untreated samples 5 days after infestation. The following compounds gave an effect of at least 80% in at least one of the two categories (mortality or growth inhibition) at an application rate of 200 ppm: […]

Myzus persicae [1] = test: Example B4: activity against Myzus persicae (green peach aphid), intrinsic activity; conditions: 120 h, test rate 12 ppm, 5 days after infestation
Outline: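 Compounds from 10′000 ppm DMSO stocks were mixed into sucrose solution in 24-well plates sealed with Parafilm. Aphid-infested pea seedlings were set on the membrane and the plate inverted so aphids fed through it. Mortality scored 5 days after infestation.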

Plutella xylostella = test: Example B5: activity against Plutella xylostella (diamond back moth), artificial diet, eggs; conditions: 192 h, 8 days after infestation, read-out: effect in at least one of the two categories (mortality or growth inhibition)
Outline: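 Artificial diet in 24-well plates was treated with aqueous dilutions of DMSO stocks, dried, then infested with Plutella eggs. Mortality and growth inhibition were scored against untreated samples 8 days after infestation; application rate 200 ppm.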

Spodoptera littoralis = test: Example B6: activity against Spodoptera littoralis (Egyptian cotton leaf worm), cotton leaf discs; conditions: foliar, 72 h, 200 ppm, L1 larvae, 3 days after infestation, read-out: control (at least one of mortality, anti-feedant effect, growth inhibition)
Outline: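 Leaf discs on agar sprayed with aqueous dilutions of 10′000 ppm DMSO stocks, dried, then infested with five L1 larvae. Mortality, anti-feeding and growth inhibition scored versus untreated 3 days after infestation; control given when any category exceeds untreated.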

Pseudoplusia includens = test: Example B9: Pseudoplusia includens (soybean looper), larvicide, feeding/contact, soybean plants; conditions: Chrysodeixis includens, 120 h; 50 ppm; L2 larvae; 5 days after infestation; read-out: effect in at least one of the two categories (mortality or growth inhibition)
Description: Soybean plants were treated in a spray chamber, cut off and placed into petri dishes containing wet filter paper. 1d after application leaves were infested with 5 L2 larvae and covered with a fabric filter and plastic lids. 5 days after infestation the samples were assessed for mortality and growth inhibition. The following compounds gave an effect of at least 80% in at least one of the two categories (mortality or growth inhibition) at an application rate of 50 ppm: […]

Myzus persicae [2] = test: Example B7b: Myzus persicae feeding/contact activity, eggplant leaf discs; conditions: foliar, 144 h, mixed ages, 6 days after infestation
Description: Eggplant leaf discs were placed onto agar in a 24-well microtiter plate and sprayed with aqueous test solutions prepared from 10′000 ppm DMSO stock solutions. After drying, the leaf discs were infested with an aphid population of mixed ages. The samples were assessed for mortality 6 days after infestation.

CNC(=O)c1cc(-n2ncnc2[C@H](C)N(C)c2ncnc3c(Cl)cc(C(F)(F)F)cc23)ncn1 [Compound P15, 6-[5-[(1S)-1-[[8-chloro-6-(trifluoromethyl)quinazolin-4-yl]-methyl-amino]ethyl]-1,2,4-triazol-1-yl]-N-methyl-pyrimidine-4-carboxamide]
≥ 80%: percent control (mortality, anti-feedant effect or growth inhibition) at 200 ppm (Chilo suppressalis) | percent effect (mortality or growth inhibition) at 200 ppm (Diabrotica balteata) | percent effect (mortality or growth inhibition) at 200 ppm (Euschistus heros) | mortality at 12 ppm (Myzus persicae [1]) | percent effect (mortality or growth inhibition) at 200 ppm (Plutella xylostella) | percent control (mortality, anti-feedant effect or growth inhibition) at 200 ppm (Spodoptera littoralis) | percent effect (mortality or growth inhibition) at 50 ppm (Pseudoplusia includens)

C[C@H](Nc1ncnc2c(C(F)(F)F)cc(Cl)cc12)c1ncnn1-c1cc(C(=O)N(C)C)ncn1 [Compound P30, 6-[5-[(1S)-1-[[6-chloro-8-(trifluoromethyl)quinazolin-4-yl]amino]ethyl]-1,2,4-triazol-1-yl]-N,N-dimethyl-pyrimidine-4-carboxamide]
≥ 80%: percent control (mortality, anti-feedant effect or growth inhibition) at 200 ppm (Chilo suppressalis) | percent effect (mortality or growth inhibition) at 200 ppm (Diabrotica balteata) | mortality at 12 ppm (Myzus persicae [1]) | percent effect (mortality or growth inhibition) at 200 ppm (Plutella xylostella) | percent control (mortality, anti-feedant effect or growth inhibition) at 200 ppm (Spodoptera littoralis) | mortality at 200 ppm (Myzus persicae [2]) | percent effect (mortality or growth inhibition) at 50 ppm (Pseudoplusia includens)

CCN(C)C(=O)c1cc(-n2ncnc2[C@H](C)Nc2ncnc3c(C(F)(F)F)cc(Cl)cc23)ncn1 [Compound P31, 6-[5-[(1S)-1-[[6-chloro-8-(trifluoromethyl)quinazolin-4-yl]amino]ethyl]-1,2,4-triazol-1-yl]-N-ethyl-N-methyl-pyrimidine-4-carboxamide]
≥ 80%: percent control (mortality, anti-feedant effect or growth inhibition) at 200 ppm (Chilo suppressalis) | percent effect (mortality or growth inhibition) at 200 ppm (Diabrotica balteata) | mortality at 12 ppm (Myzus persicae [1]) | percent effect (mortality or growth inhibition) at 200 ppm (Plutella xylostella) | percent control (mortality, anti-feedant effect or growth inhibition) at 200 ppm (Spodoptera littoralis) | mortality at 200 ppm (Myzus persicae [2]) | percent effect (mortality or growth inhibition) at 50 ppm (Pseudoplusia includens)

C[C@H](Nc1ncnc2c(Br)cc(Br)cc12)c1ncnn1-c1cc(C#N)ncn1 [Compound P41, 6-[5-[(1S)-1-[(6,8-dibromoquinazolin-4-yl)amino]ethyl]-1,2,4-triazol-1-yl]pyrimidine-4-carbonitrile]
≥ 80%: percent control (mortality, anti-feedant effect or growth inhibition) at 200 ppm (Chilo suppressalis) | percent effect (mortality or growth inhibition) at 200 ppm (Diabrotica balteata) | percent effect (mortality or growth inhibition) at 200 ppm (Plutella xylostella) | percent control (mortality, anti-feedant effect or growth inhibition) at 200 ppm (Spodoptera littoralis) | mortality at 200 ppm (Myzus persicae [2])

C[C@@H](c1ncnn1-c1cc(C(N)=O)ncn1)N(C)c1ncnc2c(I)cc(Cl)cc12 [Compound P47, 6-[5-[(1S)-1-[(6-chloro-8-iodo-quinazolin-4-yl)-methyl-amino]ethyl]-1,2,4-triazol-1-yl]pyrimidine-4-carboxamide]
≥ 80%: percent control (mortality, anti-feedant effect or growth inhibition) at 200 ppm (Chilo suppressalis) | percent effect (mortality or growth inhibition) at 200 ppm (Diabrotica balteata) | percent effect (mortality or growth inhibition) at 200 ppm (Euschistus heros) | mortality at 12 ppm (Myzus persicae [1]) | percent effect (mortality or growth inhibition) at 200 ppm (Plutella xylostella) | percent control (mortality, anti-feedant effect or growth inhibition) at 200 ppm (Spodoptera littoralis) | percent effect (mortality or growth inhibition) at 50 ppm (Pseudoplusia includens)

C[C@@H](c1ncnn1-c1cc(C(N)=O)ncn1)N(C)c1ncnc2c(Br)cc(Br)cc12 [Compound P48, 6-[5-[(1S)-1-[(6,8-dibromoquinazolin-4-yl)-methyl-amino]ethyl]-1,2,4-triazol-1-yl]pyrimidine-4-carboxamide]
≥ 80%: percent control (mortality, anti-feedant effect or growth inhibition) at 200 ppm (Chilo suppressalis) | percent effect (mortality or growth inhibition) at 200 ppm (Diabrotica balteata) | percent effect (mortality or growth inhibition) at 200 ppm (Euschistus heros) | mortality at 12 ppm (Myzus persicae [1]) | percent effect (mortality or growth inhibition) at 200 ppm (Plutella xylostella) | percent control (mortality, anti-feedant effect or growth inhibition) at 200 ppm (Spodoptera littoralis)

C[C@@H](c1ncnn1-c1cc(C(N)=O)ncn1)N(C)c1ncnc2c(Cl)cc(C(F)(F)F)cc12 [Compound P51, 6-[5-[(1S)-1-[[8-chloro-6-(trifluoromethyl)quinazolin-4-yl]-methyl-amino]ethyl]-1,2,4-triazol-1-yl]pyrimidine-4-carboxamide]
≥ 80%: percent control (mortality, anti-feedant effect or growth inhibition) at 200 ppm (Chilo suppressalis) | percent effect (mortality or growth inhibition) at 200 ppm (Diabrotica balteata) | percent effect (mortality or growth inhibition) at 200 ppm (Euschistus heros) | mortality at 12 ppm (Myzus persicae [1]) | percent effect (mortality or growth inhibition) at 200 ppm (Plutella xylostella) | percent control (mortality, anti-feedant effect or growth inhibition) at 200 ppm (Spodoptera littoralis)

C[C@H](Nc1ncnc2c(S(=O)(=O)C(F)(F)F)cc(Cl)cc12)c1ncnn1-c1cc(C(N)=O)ncn1 [Compound P59, 6-[5-[(1S)-1-[[6-chloro-8-(trifluoromethylsulfonyl)quinazolin-4-yl]amino]ethyl]-1,2,4-triazol-1-yl]pyrimidine-4-carboxamide]
≥ 80%: percent control (mortality, anti-feedant effect or growth inhibition) at 200 ppm (Chilo suppressalis) | percent effect (mortality or growth inhibition) at 200 ppm (Diabrotica balteata) | percent effect (mortality or growth inhibition) at 200 ppm (Euschistus heros) | mortality at 12 ppm (Myzus persicae [1]) | percent effect (mortality or growth inhibition) at 200 ppm (Plutella xylostella) | percent control (mortality, anti-feedant effect or growth inhibition) at 200 ppm (Spodoptera littoralis) | mortality at 200 ppm (Myzus persicae [2])

CNC(=O)c1cc(-n2ncnc2[C@H](C)Nc2ncnc3c(S(=O)(=O)C(F)(F)F)cc(Cl)cc23)ncn1 [Compound P60, 6-[5-[(1S)-1-[[6-chloro-8-(trifluoromethylsulfonyl)quinazolin-4-yl]amino]ethyl]-1,2,4-triazol-1-yl]-N-methyl-pyrimidine-4-carboxamide]
≥ 80%: percent control (mortality, anti-feedant effect or growth inhibition) at 200 ppm (Chilo suppressalis) | percent effect (mortality or growth inhibition) at 200 ppm (Diabrotica balteata) | percent effect (mortality or growth inhibition) at 200 ppm (Euschistus heros) | mortality at 12 ppm (Myzus persicae [1]) | percent effect (mortality or growth inhibition) at 200 ppm (Plutella xylostella) | percent control (mortality, anti-feedant effect or growth inhibition) at 200 ppm (Spodoptera littoralis) | percent effect (mortality or growth inhibition) at 50 ppm (Pseudoplusia includens)

C[C@H](Nc1ncnc2c(C(F)(F)F)cc(Cl)cc12)c1ncnn1-c1cc(C(=O)N(C)C2CC2)ncn1 [Compound P63, 6-[5-[(1S)-1-[[6-chloro-8-(trifluoromethyl)quinazolin-4-yl]amino]ethyl]-1,2,4-triazol-1-yl]-N-cyclopropyl-N-methyl-pyrimidine-4-carboxamide]
≥ 80%: percent control (mortality, anti-feedant effect or growth inhibition) at 200 ppm (Chilo suppressalis) | percent effect (mortality or growth inhibition) at 200 ppm (Diabrotica balteata) | percent effect (mortality or growth inhibition) at 200 ppm (Euschistus heros) | mortality at 12 ppm (Myzus persicae [1]) | percent effect (mortality or growth inhibition) at 200 ppm (Plutella xylostella) | percent control (mortality, anti-feedant effect or growth inhibition) at 200 ppm (Spodoptera littoralis) | mortality at 200 ppm (Myzus persicae [2])

C[C@@H](c1ncnn1-c1cc(C(N)=O)ncn1)N(C)c1ncnc2c(S(=O)(=O)C(F)(F)F)cc(Cl)cc12 [Compound P67, 6-[5-[(1S)-1-[[6-chloro-8-(trifluoromethylsulfonyl)quinazolin-4-yl]-methyl-amino]ethyl]-1,2,4-triazol-1-yl]pyrimidine-4-carboxamide]
≥ 80%: percent control (mortality, anti-feedant effect or growth inhibition) at 200 ppm (Chilo suppressalis) | percent effect (mortality or growth inhibition) at 200 ppm (Diabrotica balteata) | percent effect (mortality or growth inhibition) at 200 ppm (Euschistus heros) | mortality at 12 ppm (Myzus persicae [1]) | percent effect (mortality or growth inhibition) at 200 ppm (Plutella xylostella) | percent control (mortality, anti-feedant effect or growth inhibition) at 200 ppm (Spodoptera littoralis) | mortality at 200 ppm (Myzus persicae [2])

C[C@H](Nc1ncnc2c(I)cc(Cl)cc12)c1ncnn1-c1cnc(C(N)=O)cn1 [Compound P75, 5-[5-[(1S)-1-[(6-chloro-8-iodo-quinazolin-4-yl)amino]ethyl]-1,2,4-triazol-1-yl]pyrazine-2-carboxamide]
≥ 80%: percent control (mortality, anti-feedant effect or growth inhibition) at 200 ppm (Chilo suppressalis) | percent effect (mortality or growth inhibition) at 200 ppm (Diabrotica balteata) | percent effect (mortality or growth inhibition) at 200 ppm (Euschistus heros) | mortality at 12 ppm (Myzus persicae [1]) | percent effect (mortality or growth inhibition) at 200 ppm (Plutella xylostella) | percent control (mortality, anti-feedant effect or growth inhibition) at 200 ppm (Spodoptera littoralis)

C[C@@H](c1ncnn1-c1cc(C(=O)N(C)C)ncn1)N(C)c1ncnc2c(C(F)(F)F)cc(Cl)cc12 [Compound P82, 6-[5-[(1S)-1-[[6-chloro-8-(trifluoromethyl)quinazolin-4-yl]-methyl-amino]ethyl]-1,2,4-triazol-1-yl]-N,N-dimethyl-pyrimidine-4-carboxamide]
≥ 80%: percent effect (mortality or growth inhibition) at 200 ppm (Diabrotica balteata) | mortality at 12 ppm (Myzus persicae [1]) | percent effect (mortality or growth inhibition) at 200 ppm (Plutella xylostella) | percent control (mortality, anti-feedant effect or growth inhibition) at 200 ppm (Spodoptera littoralis) | mortality at 200 ppm (Myzus persicae [2])

Source: patent US20260132125A1, “PESTICIDALLY ACTIVE FUSED BICYCLIC HETEROAROMATIC COMPOUNDS” (priority 2022, published 2026)
